Measurements taken from patent publication US20020004495A1, “Methods for stimulating bone formation” (priority 1998, published 2002).

Tests used:
RCT-3 cells = test: Intracellular cAMP in RCT-3 cells; assay type: cell-based, rat
Procedure: (§1) RCT-1 and RCT-3 are clonal cell lines immortalized by SV-40 large T antigen from cells released from fetal rat calvair by a cmbination collagenase/hyaluronidase digestion. RCT-1 cells, derived from cells released during the first 10 minutes of digestion (fraction I), are cultured in RPMI 1640 medium (BRL) with 10% fetal bovine serum and 0.4 mg/ml G418 (BRL). […] RCT-3 cells, immortalized from osteoblast-enriched fraction III cells, are cultured in F-12 medium (BRL) with 5% Fetal bovine serum and 0.4 mg/ml G418. TRAB-11 cells are also immortalized by SV40 large T antigen from adult rat tibia and are cultured in RPMI 1640 medium with 10% FBS and 0.4 mg/ml G418. ROS 17/2.8 rat osteosarcoma cells are cultured in F-12 containing 5% FBS. Osteoblast-enriched (fraction III) primary fetal rat calvaria cells are obtained by collagenase/hyaluronidase digestion of calvariae of 19 day-old rat fetuses. See Rodan et al., Growth stimulation of rat calvaria osteoblastic cells by acidic FGF, Endocrinology, 121, 1919-1923 (1987), which is incorporated by reference herein in its entirety. Cells are released during 30-50 minutes digestion (fraction III) and are cultured in F-12 medium containing 5% FBS. […]

[1] = test system: EP4 expression in bone marrow cells; test: In situ hybridization of EP4 in rat tibia; assay type: in vivo; details: rats, single anabolic dose, tibial metaphysis
Procedure: For mRNA localization experiments, 5-week old Sprague-Dawley rats (Charles River) are euthanized by CO2, their tibiae and calvariae are excised, cleaned of soft tissues and frozen immediately in liquid nitrogen. For EP4 regulation experiments, 6-week old rats are given a single injection of either vehicle (7% ethanol in sterile water) or an anabolic dose of PGE2 (Cayman Chemical, Ann Arbor, Mich.), 3-6 mg/kg in the same vehicle) intraperitoneally. Animals are euthanized at several time points post-injection and their tibiae and calvariae, as well as samples from lung and kidney tissues are frozen in liquid nitrogen.
Frozen tibiae are sectioned coronally at […] thickness and sections are mounted on charged slides (Probe On Plus, Fisher Scientific, Springfield, N.J.) and are kept at −70° C. until hybridization. cRNA probes are labeled with ^35S-UTPgS (ICN, Costa Mesa, Calif.) using a Riboprobe II kit (Promega Madison, Wis.). Hybridization is performed overnight at 50° C. […]
In situ hybridization is used in order to localize cells expressing EP4 in bone In control experiment (vehicle-injected) rats, low expression of EP4 is detected in bone marrow cells. […]

TRAB-11 cells = test: Intracellular cAMP in TRAB-11 cells; assay type: cell-based, rat
Procedure: as §1

EP2 mRNA in RP-1 cells = EP2 mRNA in RP-1 cells (Northern blot); assay type: cell-based, rat
Procedure: (§2) RP-1 periosteal cells are spontaneously immortalized from primary cultures of periosteal cells from tibae of 4-week old Sprague-Dawley rats and are cultured in DMEM (BRL, Gaithersburg, Md.) with 10% fetal bovine serum (JRH Biosciences, Lenexa, Kans.). […] Total RNA is extracted from the tibial metaphysis or diaphysis and calvaria using a guanidinium isothiocyanate-phenol-chloroform method after pulverizing frozen bone samples by a tissue homogenizer. See P. Chomczynski et al., Single-step method of RNA isolation by acid guanidium thiocyanate-phenol-chloroform extraction., Analyt Biochem, 162, 156-159 (1987), which is incorporated by reference herein in its entirety. RNA samples ([…]) are separated on 0.9% agarose/formaldehyde gels and transferred onto nylon membranes (Boehringer Mannheim, Germany). Membranes are prehybridized in Hybrisol I (Oncor, Gaithersburg, Md.) and 0.5 mg/ml sonicated salmon sperm DNA (Boehringer) at 42° C. for 3 hours and are hybridized at 42° C. with rat EP2 and mouse EP4 cDNA probes labeled with [^32P]-dCTP (Amersham, Buckinghamshire, UK) by random priming using the rediprime kit (Amersham). After hybridization, membranes are washed 4 times in 2×SSC+0.1% SDS at room temperature for a total of 1 hour and once with 0.2×SSC+0.1% SDS at 55° C. for 1 hour and then exposed to Kodak XAR 2 film at −70° C. using intensifying screens. […]

[2] = test system: EP4 mRNA in RP-1 periosteal cells; test: EP4 mRNA in RP-1 periosteal cells (Northern blot); assay type: cell-based, rat; details: 10^-6 M
Procedure: as §2

EP4 mRNA in RCT-3 cells = EP4 mRNA in RCT-3 cells (Northern blot); assay type: cell-based, rat
Procedure: RCT-1 and RCT-3 are clonal cell lines immortalized by SV-40 large T antigen from cells released from fetal rat calvair by a cmbination collagenase/hyaluronidase digestion. RCT-1 cells, derived from cells released during the first 10 minutes of digestion (fraction I), are cultured in RPMI 1640 medium (BRL) with 10% fetal bovine serum and 0.4 mg/ml G418 (BRL). […] RCT-3 cells, immortalized from osteoblast-enriched fraction III cells, are cultured in F-12 medium (BRL) with 5% Fetal bovine serum and 0.4 mg/ml G418. TRAB-11 cells are also immortalized by SV40 large T antigen from adult rat tibia and are cultured in RPMI 1640 medium with 10% FBS and 0.4 mg/ml G418. ROS 17/2.8 rat osteosarcoma cells are cultured in F-12 containing 5% FBS. Osteoblast-enriched (fraction III) primary fetal rat calvaria cells are obtained by collagenase/hyaluronidase digestion of calvariae of 19 day-old rat fetuses. See Rodan et al., Growth stimulation of rat calvaria osteoblastic cells by acidic FGF, Endocrinology, 121, 1919-1923 (1987), which is incorporated by reference herein in its entirety. Cells are released during 30-50 minutes digestion (fraction III) and are cultured in F-12 medium containing 5% FBS. Total RNA is extracted from the tibial metaphysis or diaphysis and calvaria using a guanidinium isothiocyanate-phenol-chloroform method after pulverizing frozen bone samples by a tissue homogenizer. […]

[3] = test system: ROS 17/2.8 rat osteosarcoma cells; test: Intracellular cAMP in ROS 17/2.8 cells; assay type: cell-based
Procedure: as §1

[4] = test system: EP4 mRNA in tibiae and calvariae; test: EP4 mRNA in rat bone tissue after systemic administration (Northern blot); assay type: in vivo
Procedure: For mRNA localization experiments, 5-week old Sprague-Dawley rats (Charles River) are euthanized by CO2, their tibiae and calvariae are excised, cleaned of soft tissues and frozen immediately in liquid nitrogen. For EP4 regulation experiments, 6-week old rats are given a single injection of either vehicle (7% ethanol in sterile water) or an anabolic dose of PGE2 (Cayman Chemical, Ann Arbor, Mich.), 3-6 mg/kg in the same vehicle) intraperitoneally. Animals are euthanized at several time points post-injection and their tibiae and calvariae, as well as samples from lung and kidney tissues are frozen in liquid nitrogen. Total RNA is extracted from the tibial metaphysis or diaphysis and calvaria using a guanidinium isothiocyanate-phenol-chloroform method after pulverizing frozen bone samples by a tissue homogenizer. See P. Chomczynski et al., Single-step method of RNA isolation by acid guanidium thiocyanate-phenol-chloroform extraction., Analyt Biochem, 162, 156-159 (1987), which is incorporated by reference herein in its entirety. RNA samples ([…]) are separated on 0.9% agarose/formaldehyde gels and transferred onto nylon membranes (Boehringer Mannheim, Germany). Membranes are prehybridized in Hybrisol I (Oncor, Gaithersburg, Md.) and 0.5 mg/ml sonicated salmon sperm DNA (Boehringer) at 42° C. for 3 hours and are hybridized at 42° C. with rat EP2 and mouse EP4 cDNA probes labeled with [^32P]-dCTP (Amersham, Buckinghamshire, UK) by random priming using the rediprime kit (Amersham). After hybridization, membranes are washed 4 times in 2×SSC+0.1% SDS at room temperature for a total of 1 hour and once with 0.2×SSC+0.1% SDS at 55° C. for 1 hour and then exposed to Kodak XAR 2 film at −70° C. using intensifying screens. After developing the films, bound probes are removed twice with 0.1% SDS at 80° C. and membranes are hybridized with a human GAPDH (Glyceraldehyde 3-Phosphate Dehydrogenase) cDNA probe (purchased from Clontech, Palo Alto, Calif.) for loading control. To examine if PGE2 regulates EP4 mRNA levels in vivo in bone tissue, […] male rats are injected with PGE2 (3-6 mg/Kg).

EP2 mRNA in bone tissue = test: EP2 mRNA in rat bone tissue after systemic administration (Northern blot); assay type: in vivo; details: rats, 3-6 mg/Kg
Procedure: For mRNA localization experiments, 5-week old Sprague-Dawley rats (Charles River) are euthanized by CO2, their tibiae and calvariae are excised, cleaned of soft tissues and frozen immediately in liquid nitrogen. For EP4 regulation experiments, 6-week old rats are given a single injection of either vehicle (7% ethanol in sterile water) or an anabolic dose of PGE2 (Cayman Chemical, Ann Arbor, Mich.), 3-6 mg/kg in the same vehicle) intraperitoneally. Animals are euthanized at several time points post-injection and their tibiae and calvariae, as well as samples from lung and kidney tissues are frozen in liquid nitrogen. Total RNA is extracted from the tibial metaphysis or diaphysis and calvaria using a guanidinium isothiocyanate-phenol-chloroform method after pulverizing frozen bone samples by a tissue homogenizer. See P. Chomczynski et al., Single-step method of RNA isolation by acid guanidium thiocyanate-phenol-chloroform extraction., Analyt Biochem, 162, 156-159 (1987), which is incorporated by reference herein in its entirety. RNA samples ([…]) are separated on 0.9% agarose/formaldehyde gels and transferred onto nylon membranes (Boehringer Mannheim, Germany). […]

`CCCCC[C@H](O)/C=C/[C@H]1[C@H](O)CC(=O)[C@@H]1C/C=C\CCCC(=O)O` [PGE2, prostaglandin E2] was tested, and the “effect on intracellular cAMP” value (RCT-3 cells) was “markedly induced”, the “expression of EP4 in bone marrow cells (in situ hybridization)” value [1] was “increasesd the expression” and the “effect on intracellular cAMP” value (TRAB-11 cells) was “markedly induced”. For the same molecule, the “induction of EP2 mRNA” value (EP2 mRNA in RP-1 cells) was “does not induce”, the “effect on EP4 mRNA levels” value [2] was “rapidly increases” and the “time of peak of EP4 mRNA levels after treatment” value [2] was 2 h. For the same molecule, the “effect on EP4 mRNA levels” value (EP4 mRNA in RCT-3 cells) was “no effect”, the “effect on intracellular cAMP” value [3] was “no effect” and the “effect on EP4 mRNA levels in the tibial diaphysis” value ([4]; rats, 3-6 mg/Kg) was “rapidly increased”. The “time of peak of EP4 mRNA levels in the tibial diaphysis after injection” value ([4]; rats, 3-6 mg/Kg) was 2 h, the “effect on expression of EP4 in tibiae and calvariae” value ([4]; young adult rats, 3-6 mg/kg) was “upregulates” and the “time of peak of EP4 expression in tibiae and calvariae” value ([4]; young adult rats, 3-6 mg/kg) was 1 to 2 h. For the same molecule, the “induction of EP2 mRNA in bone tissue” value (EP2 mRNA in bone tissue) was “does not induce”.
